This is an account of results in PubChem BioAssay AID1259407 (Chemical Carcinogenesis Research Information System (CCRIS), 2018).

The data set concerns CCRIS mutagenicity, Ames/micronucleus/aberration tests. Briefly: CCRIS mutagenicity studies.

SMILES strings stand for the structures. Calls of active or inactive are those of the source. How the calls were made is not given here.

Regarding `Cc1ccc(N)cc1`, the mutagenic call was “inactive; negative” (Test System: AMES SALMONELLA TYPHIMURIUM, Strain/Indicator: TA97, Metabolic Activation: HAMSTER, LIVER, S-9, AROCLOR 1254 (10%), Method: PREINCUBATION); “inactive; negative” (Test System: AMES SALMONELLA TYPHIMURIUM, Strain/Indicator: TA97, Metabolic Activation: HAMSTER, LIVER, S-9, AROCLOR 1254 (30%), Method: PREINCUBATION); “inactive; negative” (Test System: AMES SALMONELLA TYPHIMURIUM, Strain/Indicator: TA97, Metabolic Activation: NONE, Method: PREINCUBATION); “inactive; negative” (Test System: AMES SALMONELLA TYPHIMURIUM, Strain/Indicator: TA97, Metabolic Activation: RAT, LIVER, S-9, AROCLOR 1254 (10%), Method: PREINCUBATION); “inactive; negative” (Test System: AMES SALMONELLA TYPHIMURIUM, Strain/Indicator: TA97, Metabolic Activation: RAT, LIVER, S-9, AROCLOR 1254 (30%), Method: PREINCUBATION); “inactive; negative” (Test System: AMES SALMONELLA TYPHIMURIUM, Strain/Indicator: TA98, Metabolic Activation: HAMSTER, LIVER, S-9, AROCLOR 1254 (10%), Method: PREINCUBATION). For the same compound, the mutagenic call by setting is: (Test System: AMES SALMONELLA TYPHIMURIUM, Strain/Indicator: TA98, Metabolic Activation: HAMSTER, LIVER, S-9, AROCLOR 1254 (30%), Method: PREINCUBATION) “inactive; negative”; (Test System: AMES SALMONELLA TYPHIMURIUM, Strain/Indicator: TA98, Metabolic Activation: HAMSTER, LIVER, S-9, SODIUM PHENOBARBITAL AND 5,6-BENZOFLAVONE, Method: PREINCUBATION) “inactive; negative”; (Test System: AMES SALMONELLA TYPHIMURIUM, Strain/Indicator: TA98, Metabolic Activation: NONE, Method: PREINCUBATION) “inactive; negative”; (Test System: AMES SALMONELLA TYPHIMURIUM, Strain/Indicator: TA98, Metabolic Activation: RAT LIVER S-9, PHENOBARBITAL AND BETA-NAPHTHOFLAVONE, Method: PREINCUBATION) “inactive; negative”; (Test System: AMES SALMONELLA TYPHIMURIUM, Strain/Indicator: TA98, Metabolic Activation: RAT, LIVER, S-9, AROCLOR 1254 (10%), Method: PREINCUBATION) “inactive; negative”; (Test System: AMES SALMONELLA TYPHIMURIUM, Strain/Indicator: TA98, Metabolic Activation: RAT, LIVER, S-9, AROCLOR 1254 (30%), Method: PREINCUBATION) “inactive; negative”. The mutagenic call is, setting by setting: (Test System: AMES SALMONELLA TYPHIMURIUM, Strain/Indicator: TA100, Metabolic Activation: HAMSTER, LIVER, S-9, AROCLOR 1254 (10%), Method: PREINCUBATION) “inactive; negative”; (Test System: AMES SALMONELLA TYPHIMURIUM, Strain/Indicator: TA100, Metabolic Activation: HAMSTER, LIVER, S-9, AROCLOR 1254 (30%), Method: PREINCUBATION) “active; positive”; (Test System: AMES SALMONELLA TYPHIMURIUM, Strain/Indicator: TA100, Metabolic Activation: HAMSTER, LIVER, S-9, SODIUM PHENOBARBITAL AND 5,6-BENZOFLAVONE, Method: PREINCUBATION) “inactive; negative”; (Test System: AMES SALMONELLA TYPHIMURIUM, Strain/Indicator: TA100, Metabolic Activation: NONE, Method: PREINCUBATION) “inactive; negative”; (Test System: AMES SALMONELLA TYPHIMURIUM, Strain/Indicator: TA100, Metabolic Activation: RAT LIVER S-9, PHENOBARBITAL AND BETA-NAPHTHOFLAVONE, Method: PREINCUBATION) “inactive; negative”; (Test System: AMES SALMONELLA TYPHIMURIUM, Strain/Indicator: TA100, Metabolic Activation: RAT, LIVER, S-9, AROCLOR 1254 (10%), Method: PREINCUBATION) “inactive; negative”. Further, the mutagenic call was “inactive; negative” (Test System: AMES SALMONELLA TYPHIMURIUM, Strain/Indicator: TA100, Metabolic Activation: RAT, LIVER, S-9, AROCLOR 1254 (30%), Method: PREINCUBATION); “inactive; negative” (Test System: AMES SALMONELLA TYPHIMURIUM, Strain/Indicator: TA102, Metabolic Activation: HAMSTER, LIVER, S-9, SODIUM PHENOBARBITAL AND 5,6-BENZOFLAVONE, Method: PREINCUBATION); “inactive; negative” (Test System: AMES SALMONELLA TYPHIMURIUM, Strain/Indicator: TA102, Metabolic Activation: NONE, Method: PREINCUBATION); “inactive; negative” (Test System: AMES SALMONELLA TYPHIMURIUM, Strain/Indicator: TA104, Metabolic Activation: HAMSTER, LIVER, S-9, SODIUM PHENOBARBITAL AND 5,6-BENZOFLAVONE, Method: PREINCUBATION); “inactive; negative” (Test System: AMES SALMONELLA TYPHIMURIUM, Strain/Indicator: TA104, Metabolic Activation: NONE, Method: PREINCUBATION); “inactive; negative” (Test System: AMES SALMONELLA TYPHIMURIUM, Strain/Indicator: TA1535, Metabolic Activation: HAMSTER, LIVER, S-9, AROCLOR 1254 (10%), Method: PREINCUBATION). Moreover, the mutagenic call was “inactive; negative” (Test System: AMES SALMONELLA TYPHIMURIUM, Strain/Indicator: TA1535, Metabolic Activation: HAMSTER, LIVER, S-9, AROCLOR 1254 (30%), Method: PREINCUBATION); “inactive; negative” (Test System: AMES SALMONELLA TYPHIMURIUM, Strain/Indicator: TA1535, Metabolic Activation: HAMSTER, LIVER, S-9, SODIUM PHENOBARBITAL AND 5,6-BENZOFLAVONE, Method: PREINCUBATION); “inactive; negative” (Test System: AMES SALMONELLA TYPHIMURIUM, Strain/Indicator: TA1535, Metabolic Activation: NONE, Method: PREINCUBATION); “inactive; negative” (Test System: AMES SALMONELLA TYPHIMURIUM, Strain/Indicator: TA1535, Metabolic Activation: RAT LIVER S-9, PHENOBARBITAL AND BETA-NAPHTHOFLAVONE, Method: PREINCUBATION); “inactive; negative” (Test System: AMES SALMONELLA TYPHIMURIUM, Strain/Indicator: TA1535, Metabolic Activation: RAT, LIVER, S-9, AROCLOR 1254 (10%), Method: PREINCUBATION); “inactive; negative” (Test System: AMES SALMONELLA TYPHIMURIUM, Strain/Indicator: TA1535, Metabolic Activation: RAT, LIVER, S-9, AROCLOR 1254 (30%), Method: PREINCUBATION). The mutagenic call was “inactive; negative” (Test System: AMES SALMONELLA TYPHIMURIUM, Strain/Indicator: TA1537, Metabolic Activation: HAMSTER, LIVER, S-9, SODIUM PHENOBARBITAL AND 5,6-BENZOFLAVONE, Method: PREINCUBATION); “inactive; negative” (Test System: AMES SALMONELLA TYPHIMURIUM, Strain/Indicator: TA1537, Metabolic Activation: NONE, Method: PREINCUBATION); “inactive; negative” (Test System: AMES SALMONELLA TYPHIMURIUM, Strain/Indicator: TA1537, Metabolic Activation: RAT LIVER S-9, PHENOBARBITAL AND BETA-NAPHTHOFLAVONE, Method: PREINCUBATION); “inactive; negative” (Test System: E. COLI, Strain/Indicator: WP2UVRA/PKM101, Metabolic Activation: HAMSTER, LIVER, S-9, SODIUM PHENOBARBITAL AND 5,6-BENZOFLAVONE, Method: PREINCUBATION); “inactive; negative” (Test System: E. COLI, Strain/Indicator: WP2UVRA/PKM101, Metabolic Activation: NONE, Method: PREINCUBATION); “inactive; negative” (Test System: E. COLI, Strain/Indicator: WP2UVRA, Metabolic Activation: HAMSTER, LIVER, S-9, SODIUM PHENOBARBITAL AND 5,6-BENZOFLAVONE, Method: PREINCUBATION). In addition, the mutagenic call reads like this: (Test System: E. COLI, Strain/Indicator: WP2 UVRA, Metabolic Activation: NONE, Method: FLUCTUATION TEST) “inactive; negative”; (Test System: E. COLI, Strain/Indicator: WP2UVRA, Metabolic Activation: NONE, Method: PREINCUBATION) “inactive; negative”; (Test System: E.COLI, Strain/Indicator: WP2UVRA, Metabolic Activation: NONE, Method: PREINCUBATION) “inactive; negative”; (Test System: E.COLI, Strain/Indicator: WP2UVRA, Metabolic Activation: RAT LIVER S-9, PHENOBARBITAL AND BETA-NAPHTHOFLAVONE, Method: PREINCUBATION) “inactive; negative”.
Consider `O=C(NCCCl)Nc1ncc([N+](=O)[O-])s1`, for which the mutagenic call (Test System: AMES SALMONELLA TYPHIMURIUM, Strain/Indicator: TA98, Metabolic Activation: NONE, Method: STANDARD PLATE) was “active; positive” and the mutagenic call (Test System: AMES SALMONELLA TYPHIMURIUM, Strain/Indicator: TA100, Metabolic Activation: NONE, Method: STANDARD PLATE) was “active; positive”.
